Legend:
Orexin receptor type 2 = biological target: T1, Orexin receptor type 2 (Homo sapiens, UniProt O43614); assay: (§1) FLIPR Ca2+ Flux Assay: All reagents were from GIBCO-Invitrogen Corp. The seeded plates are incubated overnight at 37° C. and 5% CO2. Ala-6,12 human orexin-A as the agonist is prepared as a 1 mM stock solution in 1% bovine serum albumin (BSA) and diluted in assay buffer (HBSS containing 20 mM HEPES, 0.1% BSA and 2.5 mM probenecid, pH7.4) for use in the assay at a final concentration of 70pM. Test compounds are prepared as 10 mM stock solution in DMSO, then diluted in 384-well plates, first in DMSO, then assay buffer. On the day of the assay, cells are washed 3 times with 100 μl assay buffer and then incubated for 60 min (37° C., 5% CO2) in 60 μl assay buffer containing 1 μM Fluo-4AM ester, 0.02% pluronic acid, and 1% BSA. The dye loading solution is then aspirated and cells are washed 3 times with 100 μl assay buffer. 30 μl of that same buffer is left in each well. Within the Fluorescent Imaging Plate Reader (FLIPR, Molecular Devices), test compounds are added to the plate in a volume of 25 μl, incubated for 5 min and finally 25 μl of agonist is added. Fluorescence is measured for each well at 1 second intervals for 5 minutes and the height of each fluorescence peak is compared to the height of the fluorescence peak induced by 70 pM Ala-6,12 orexin-A with buffer in place of antagonist. For each antagonist, IC50 value (the concentration of compound needed to inhibit 50% of the agonist response) is determined. Alternatively, compound potency can be assessed by a radioligand binding assay (described in Bergman et. al. Bioorg. Med. Chem. Lett. 2008, 18, 1425-1430) in which the inhibition constant (Ki) is determined in membranes prepared from CHO cells expressing either the OX1 or OX2 receptor. The intrinsic orexin receptor antagonist activity of a compound which may be used in the present invention may be determined by these assays.
T1 sequence (O43614 whole entry): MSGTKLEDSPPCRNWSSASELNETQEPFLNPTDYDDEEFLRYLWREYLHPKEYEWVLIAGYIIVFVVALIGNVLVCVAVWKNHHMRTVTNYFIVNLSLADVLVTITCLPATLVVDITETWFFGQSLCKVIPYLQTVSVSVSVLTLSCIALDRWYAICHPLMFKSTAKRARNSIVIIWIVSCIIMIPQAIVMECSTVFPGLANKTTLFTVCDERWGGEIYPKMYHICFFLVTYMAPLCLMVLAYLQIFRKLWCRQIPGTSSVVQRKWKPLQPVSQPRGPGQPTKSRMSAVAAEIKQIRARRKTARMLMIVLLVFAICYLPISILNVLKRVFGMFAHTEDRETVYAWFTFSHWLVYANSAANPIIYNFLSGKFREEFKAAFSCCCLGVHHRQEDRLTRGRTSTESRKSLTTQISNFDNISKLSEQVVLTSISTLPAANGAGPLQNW

[1] = biological target: T2, Orexin/Hypocretin receptor type 1 (Homo sapiens, UniProt O43613); assay: as §1
T2 sequence (O43613 whole entry): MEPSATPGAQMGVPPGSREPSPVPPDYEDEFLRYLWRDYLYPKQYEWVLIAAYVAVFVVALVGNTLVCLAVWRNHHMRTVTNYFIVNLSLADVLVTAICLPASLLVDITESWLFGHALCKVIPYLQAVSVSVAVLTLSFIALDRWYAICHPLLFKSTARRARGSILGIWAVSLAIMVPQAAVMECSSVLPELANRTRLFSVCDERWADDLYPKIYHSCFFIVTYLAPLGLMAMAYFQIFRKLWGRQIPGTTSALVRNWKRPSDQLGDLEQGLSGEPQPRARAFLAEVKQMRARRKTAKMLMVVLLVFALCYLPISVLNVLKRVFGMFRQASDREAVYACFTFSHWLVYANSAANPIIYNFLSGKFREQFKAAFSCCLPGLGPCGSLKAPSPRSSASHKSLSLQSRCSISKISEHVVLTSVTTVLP

| Compound | IC50 (Orexin receptor type 2) [nM] | IC50 [1] [nM] |
| --- | --- | --- |
| C[C@@H]1C[C@@H](Nc2cc(Br)ccn2)CN1C(=O)c1ccccc1-n1nccn1 | 11.2 | 1150 |
| C[C@@H]1C[C@@H](Nc2cc(OCC(F)F)ccn2)CN1C(=O)c1ccccc1C1(C#N)CCC1 | 58.3 | 4040 |

— ChEMBL document CHEMBL5725973, “Pyrrolidine orexin receptor antagonists” (2018)
